# Experimental data taken from patent US12285407B2, “Bis-indolylmethane derivatives and uses thereof” (The University of The West Indies, priority 2018, dated 2025).
# Legend:
# MRSA = assay: Adjuvant broth microdilution (antibiotic MIC with SP-BIM at 50 μg/mL); assay type: cell-based, Staphylococcus aureus
# Streptococcus pneumoniae [1] = assay: as above; assay type: cell-based; conditions: Streptococcus pneumoniae, read-out: MIC of antibiotic, No compound
# Escherichia coli [2] = assay: microbe, parasite or virus in culture; assay type: cell-based; conditions: read-out: MIC of antibiotic, No compound
# Klebsiella pneumoniae [3] = assay: Adjuvant broth microdilution (antibiotic MIC with SP-BIM at 50 μg/mL); assay type: cell-based
# Bacillus cereus [4] = assay: as above; assay type: cell-based; conditions: antibiotic alone, Table 9
# Escherichia coli O157:H7 = assay type: cell-based; conditions: antibiotic alone, no SP-BIM
# Staphylococcus aureus = assay: Checkerboard synergy (FICI) of antibiotics with SP-BIM; assay type: cell-based; conditions: Staphylococcus aureus
# Streptococcus pneumoniae [5] = assay: as above; assay type: cell-based
# Bacillus cereus [6] = assay: as above; assay type: cell-based
# Enterococcus faecium = assay: as above; assay type: cell-based; conditions: Enterococcus faecium
# Klebsiella pneumoniae [7] = assay: as above; assay type: cell-based
# [8] = system: clinical strains of Enterococcus faecium; assay: Kirby Bauer disc diffusion susceptibility profile; assay type: cell-based; conditions: for Zone of clearance: 35° C., 24 hours, average n=3; for Interpretive standard (resistant/susceptible): zones vs EUCAST breakpoints (Table 31)
# MRSA HS 10132 = assay: Systemic lethal MRSA infection in mice (survival); assay type: in vivo; conditions: vancomycin only
# Escherichia coli [9] = assay: Checkerboard synergy (FICI) of antibiotics with SP-BIM; set-up: MIC SP-BIM 13 only / MIC in combination: Antibiotic: unit not given beside the values
# Candida albicans = assay: as above; set-up: MIC SP-BIM 13 only / MIC in combination: Antibiotic / MIC antibiotic only: unit not given beside the values
# [10] = 24 h, read-out: MIC antibiotic only
# [11] = SP-BIM 9 in combination with the labelled antibiotic
# [12] = SP-BIM 13 in combination with the labelled antibiotic
# [13] = antibiotic alone, SP-BIM 13 checkerboard
# [14] = antibiotic in combination with SP-BIM 9
# [15] = antibiotic in combination with SP-BIM 13
# [16] = Streptococcus pneumonia (title: Streptococcus pyogenes), antibiotic + SP-BIM 9
# [17] = Streptococcus pneumoniae, antibiotic + SP-BIM 13
# [18] = MIC of the antibiotic in combination with SP-BIM 13
smiles,measurement,setting,value
"CN[C@H](CC(C)C)C(=O)N[C@H]1C(=O)N[C@@H](CC(N)=O)C(=O)N[C@H]2C(=O)N[C@H]3C(=O)N[C@H](C(=O)N[C@H](C(=O)O)c4cc(O)cc(O)c4-c4cc3ccc4O)[C@H](O)c3ccc(c(Cl)c3)Oc3cc2cc(c3O[C@@H]2O[C@H](CO)[C@@H](O)[C@H](O)[C@H]2O[C@H]2C[C@](C)(N)[C@H](O)[C@H](C)O2)Oc2ccc(cc2Cl)[C@H]1O [Vancomycin, vancomycin]",MIC,"MRSA; Staphylococcus aureus, read-out: MIC of antibiotic, No compound",4 µg/mL
same,"MIC of antibiotic, No Compound","MRSA; antibiotic alone, Table 8 (series SP-BIMs 21-29)",2 µg/mL
same,MIC,Streptococcus pneumoniae [1],1 µg/mL
same,MIC,Escherichia coli [2],125 µg/mL
same,"MIC of antibiotic, No Compound","Klebsiella pneumoniae [3]; Klebsiella pneumonia, antibiotic alone, no SP-BIM",>250 µg/mL
same,MIC,"Klebsiella pneumoniae [3]; Klebsiella pneumoniae, read-out: MIC of antibiotic, No compound",> 250 µg/mL
same,"MIC of antibiotic, No Compound",Bacillus cereus [4],4 µg/mL
same,"MIC of antibiotic, No Compound",Escherichia coli O157:H7,250 µg/mL
same,MIC,Staphylococcus aureus; [10],2 µg/mL
same,FIC of SP-BIM 9,Staphylococcus aureus; [11],0.02
same,FIC of SP-BIM 13,Staphylococcus aureus; [12],0.3
same,Interpretation,Staphylococcus aureus; antibiotic + SP-BIM 9,Synergy (Synergy: FICI≤0.5)
same,Σ FIC,Staphylococcus aureus; antibiotic + SP-BIM 9,<0.27
same,Interpretation,Staphylococcus aureus; antibiotic + SP-BIM 13,Synergy (Synergy: FICI≤0.5)
same,Σ FIC,Staphylococcus aureus; antibiotic + SP-BIM 13,0.4
same,MIC antibiotic only,Staphylococcus aureus; [13],2 µg/mL
same,"MIC in combination, Antibiotic",Staphylococcus aureus; [14],0.5 µg/mL
same,"MIC in combination, Antibiotic",Staphylococcus aureus; [15],0.25 µg/mL
same,FIC of antibiotic,Staphylococcus aureus; in combination with SP-BIM 9,0.25
same,FIC of antibiotic,Staphylococcus aureus; in combination with SP-BIM 13,0.1
same,FIC of SP-BIM 9,"Streptococcus pneumoniae [5]; Streptococcus pneumonia (title: Streptococcus pyogenes), SP-BIM 9 in combination with the labelled antibiotic",0.26
same,Interpretation,Streptococcus pneumoniae [5]; [16],Synergy (Synergy: FICI≤0.5)
same,Σ FIC,Streptococcus pneumoniae [5]; [16],<0.36
same,"MIC in combination, Antibiotic","Streptococcus pneumoniae [5]; Streptococcus pneumonia (title: Streptococcus pyogenes), antibiotic in combination with SP-BIM 9",0.2 µg/mL
same,FIC of antibiotic,"Streptococcus pneumoniae [5]; Streptococcus pneumonia (title: Streptococcus pyogenes), in combination with SP-BIM 9",0.10
same,MIC,"Streptococcus pneumoniae [5]; Streptococcus pneumoniae, 24 h, read-out: MIC antibiotic only",2 µg/mL
same,FIC of SP-BIM 13,"Streptococcus pneumoniae [5]; Streptococcus pneumoniae, SP-BIM 13 in combination with the labelled antibiotic",0.1
same,Interpretation,Streptococcus pneumoniae [5]; [17],Synergy (Synergy: FICI≤0.5)
same,Σ FIC,Streptococcus pneumoniae [5]; [17],0.3
same,MIC antibiotic only,"Streptococcus pneumoniae [5]; Streptococcus pneumoniae, antibiotic alone, SP-BIM 13 checkerboard",2 µg/mL
same,"MIC in combination, Antibiotic","Streptococcus pneumoniae [5]; Streptococcus pneumoniae, antibiotic in combination with SP-BIM 13",0.5 µg/mL
same,FIC of antibiotic,"Streptococcus pneumoniae [5]; Streptococcus pneumoniae, in combination with SP-BIM 13",0.3
same,MIC,Bacillus cereus [6]; [10],2 µg/mL
same,FIC of SP-BIM 13,Bacillus cereus [6]; [12],0.0
same,Interpretation,Bacillus cereus [6]; antibiotic + SP-BIM 13,Synergy (Synergy: FICI≤0.5)
same,Σ FIC,Bacillus cereus [6]; antibiotic + SP-BIM 13,0.1
same,MIC antibiotic only,Bacillus cereus [6]; [13],2 µg/mL
same,"MIC in combination, Antibiotic",Bacillus cereus [6]; [15],0.25 µg/mL
same,FIC of antibiotic,Bacillus cereus [6]; in combination with SP-BIM 13,0.13
same,MIC,Enterococcus faecium; [10],16 µg/mL
same,"MIC in combination, SP-BIM 9",Enterococcus faecium; SP-BIM 9 concentration in combination with the labelled antibiotic,64 µg/mL
same,FIC of SP-BIM 9,Enterococcus faecium; [11],0.3
same,FIC of SP-BIM 13,Enterococcus faecium; [12],0.5
same,Interpretation,Enterococcus faecium; antibiotic + SP-BIM 9,Synergy (Synergy: FICI≤0.5)
same,Σ FIC,Enterococcus faecium; antibiotic + SP-BIM 9,≤0.31
same,Interpretation,Enterococcus faecium; antibiotic + SP-BIM 13,Additive (Additive: FICI>0.5-1.0)
same,Σ FIC,Enterococcus faecium; antibiotic + SP-BIM 13,<1.0
same,MIC antibiotic only,Enterococcus faecium; [13],16 µg/mL
same,"MIC in combination, Antibiotic",Enterococcus faecium; [14],0.2 µg/mL
same,"MIC in combination, Antibiotic",Enterococcus faecium; [15],8 µg/mL
same,FIC of antibiotic,Enterococcus faecium; in combination with SP-BIM 9,0.013
same,FIC of antibiotic,Enterococcus faecium; in combination with SP-BIM 13,0.5
same,MIC,Klebsiella pneumoniae [7]; [10],125 µg/mL
same,FIC of SP-BIM 9,Klebsiella pneumoniae [7]; [11],1
same,FIC of SP-BIM 13,Klebsiella pneumoniae [7]; [12],1.0
same,Interpretation,Klebsiella pneumoniae [7]; antibiotic + SP-BIM 9,Indifferent (Indifferent: FICI>1.0-4.0)
same,Σ FIC,Klebsiella pneumoniae [7]; antibiotic + SP-BIM 9,<2.0
same,Interpretation,Klebsiella pneumoniae [7]; antibiotic + SP-BIM 13,Indifferent (Indifferent: FICI>1.0-4.0)
same,Σ FIC,Klebsiella pneumoniae [7]; antibiotic + SP-BIM 13,<2.0
same,MIC antibiotic only,Klebsiella pneumoniae [7]; [13],125 µg/mL
same,"MIC in combination, Antibiotic",Klebsiella pneumoniae [7]; [14],125 µg/mL
same,"MIC in combination, Antibiotic",Klebsiella pneumoniae [7]; [15],125 µg/mL
same,FIC of antibiotic,Klebsiella pneumoniae [7]; in combination with SP-BIM 9,1
same,FIC of antibiotic,Klebsiella pneumoniae [7]; in combination with SP-BIM 13,1.0
same,Zone of clearance,[8]; E. faecium strain 15134,12 mm
same,Interpretive standard (resistant/susceptible),[8]; E. faecium strain 15134,S
same,Zone of clearance,[8]; E. faecium strain 21024,9 mm
same,Interpretive standard (resistant/susceptible),[8]; E. faecium strain 21024,R
same,Zone of clearance,[8]; E. faecium strain 21955,15 mm
same,Interpretive standard (resistant/susceptible),[8]; E. faecium strain 21955,S
same,Zone of clearance,[8]; E. faecium strain 22003,16 mm
same,Interpretive standard (resistant/susceptible),[8]; E. faecium strain 22003,S
same,Zone of clearance,[8]; E. faecium strain 22870,10 mm
same,Interpretive standard (resistant/susceptible),[8]; E. faecium strain 22870,R
same,Zone of clearance,[8]; E. faecium strain 23227,9 mm
same,Interpretive standard (resistant/susceptible),[8]; E. faecium strain 23227,R
same,Zone of clearance,[8]; E. faecium strain 23230,5 mm
same,Interpretive standard (resistant/susceptible),[8]; E. faecium strain 23230,R
same,Zone of clearance,[8]; E. faecium strain 23668,10 mm
same,Interpretive standard (resistant/susceptible),[8]; E. faecium strain 23668,R
same,Zone of clearance,[8]; E. faecium strain 24169,10 mm
same,Interpretive standard (resistant/susceptible),[8]; E. faecium strain 24169,R
same,Zone of clearance,[8]; E. faecium strain RC63,8 mm
same,Interpretive standard (resistant/susceptible),[8]; E. faecium strain RC63,R
same,survival rate,MRSA HS 10132,similarly high survival rate
same,MIC,Escherichia coli [9]; [10],125 µg/mL
same,MIC in combination: Antibiotic,Escherichia coli [9]; [18],125
same,FIC of SP-BIM 9,Escherichia coli [9]; [11],1
same,FIC of SP-BIM 13,Escherichia coli [9]; [12],1.0
same,Interpretation,Escherichia coli [9]; antibiotic + SP-BIM 9,Indifferent (Indifferent: FICI>1.0-4.0)
same,Σ FIC,Escherichia coli [9]; antibiotic + SP-BIM 9,<2.0
same,Interpretation,Escherichia coli [9]; antibiotic + SP-BIM 13,Indifferent (Indifferent: FICI>1.0-4.0)
same,Σ FIC,Escherichia coli [9]; antibiotic + SP-BIM 13,<2.0
same,MIC antibiotic only,Escherichia coli [9]; antibiotic alone,125
same,"MIC in combination, Antibiotic",Escherichia coli [9]; [14],125 µg/mL
same,FIC of antibiotic,Escherichia coli [9]; combination with SP-BIM 13,1.0
same,FIC of antibiotic,Escherichia coli [9]; in combination with SP-BIM 9,1
same,MIC,Candida albicans; [10],16 µg/mL
same,MIC in combination: Antibiotic,Candida albicans; [18],8
same,FIC of SP-BIM 13,Candida albicans; [12],0.1
same,Interpretation,Candida albicans; antibiotic + SP-BIM 13,Additive (Additive: FICI>0.5-1.0)
same,Σ FIC,Candida albicans; antibiotic + SP-BIM 13,<0.6
same,FIC of antibiotic,Candida albicans; combination with SP-BIM 13,0.5
